Here are results for 1 substance from article PMC3425544, “The S100A10 Subunit of the Annexin A2 Heterotetramer Facilitates L2-Mediated Human Papillomavirus Infection” (PLoS ONE, 2012).

The test system of assay [1] is Bovine Serum Albumin (BSA). As to the kind of experiment: EPR binding of L2 peptide to BSA (specificity control). As to conditions: 20 µM peptide, 100 µM BSA. From the text: The L2_108–126 peptides used in our EPR studies were synthesized with a cysteine at the N-terminus, and followed by a spacer of 3 physiological amino acids (C-IVS) preceding the canonical L2_108–126 and L2 scrambled sequences (C-IVS-LVEETSFIDAGAPTSVPSI and C-IVS-IESPVSDTALGTPEIFVSA respectively). Peptides were combined with 8× molar excess paramagnetic label (1-oxyl-2, 2, 5, 5-tetramethyl-Δ3-pyrroline-3-methyl) (R1) methanethiosulfonate (MTSL), (Toronto Research Chemicals, Canada) and left to react overnight at 4°C. Free label was removed by gel filtration (PD10 GE, United Kingdom). All peptides were solubilized into HEPES buffer. […] Binding interactions were examined by combining paramagnetically-labeled L2 peptide with A2t, BSA, ANXA2, or S100A10 (20 µM, 100 µM, 100 µM, 100 µM, and 100 µM respectively) in 10 µL volumes of the HEPES buffer, confined by glass capillaries, and measured at room temperature over a period of 24 hours using a Bruker EMX X-band EPR spectrometer. […] To quantify the amount of bound peptide spectra of all tested proteins in combination with the L2_108–126 or ScrL2 peptides were compared to the spectra of L2_108–126 or ScrL2 peptides alone in solution using a spectra analyzing software (EPR 130, University of California, Los Angeles). […]

The subject of the next assay is S100A10 subunit of A2t. As to the kind of experiment: EPR binding of L2 peptide to S100A10. How it is done:
(§1) Recombinant annexin A2 was expressed in BL21(DE3) Escherichia coli cells and purified using reversible Ca^2+-dependent binding to negatively charged phospholipid vesicles followed by size exclusion chromatography. A pET23A vector containing the S100A10 sequence (a gift from Volker Gerke) was expressed in BL21(DE3) cells as previously described. Both proteins were stored at 4°C in 20 mM HEPES buffer at pH 7.4, containing 100 mM NaCl with the addition of 1 mM dithiothreitol. Concentrations of all proteins and peptides, including the A2t complex, were determined using bicinchoninic acid assays (Pierce Thermo Scientific, Rockford, IL) compared to measured absorbance of albumin standards at 562 nm. Purified annexin A2 and S100A10 were combined at a molar ratio of 1∶1 and concentrated to over 8 µg/µl. The mixture was incubated overnight at 4°C, and then loaded onto a superdex 200 10/300 GL (GE Healthcare USA) column equilibrated in the previously mentioned HEPES buffer. The eluted A2t peak was collected and subjected to peptide binding assays.
(§2) The L2_108–126 peptides used in our EPR studies were synthesized with a cysteine at the N-terminus, and followed by a spacer of 3 physiological amino acids (C-IVS) preceding the canonical L2_108–126 and L2 scrambled sequences (C-IVS-[…] and C-IVS-[…] respectively). Peptides were combined with 8× molar excess paramagnetic label (1-oxyl-2, 2, 5, 5-tetramethyl-Δ3-pyrroline-3-methyl) (R1) methanethiosulfonate (MTSL), (Toronto Research Chemicals, Canada) and left to react overnight at 4°C. Free label was removed by gel filtration (PD10 GE, United Kingdom). All peptides were solubilized into HEPES buffer. For competition assays, the scrambled peptide was non-paramagnetic labeled with an N-acetylated MTSL paramagnetic-label analog (1-acetyl-2,2,5,5- tetramethyl-Δ3-pyrroline-3-methyl) (R1′) at an 8× molar excess to emulate the paramagnetic label on control peptides. Binding interactions were examined by combining paramagnetically-labeled L2 peptide with A2t, BSA, ANXA2, or S100A10 (20 µM, 100 µM, 100 µM, 100 µM, and 100 µM respectively) in 10 µL volumes of the HEPES buffer, confined by glass capillaries, and measured at room temperature over a period of 24 hours using a Bruker EMX X-band EPR spectrometer. For the cysteine blocked S100A10, S100A10 was treated with R1′ and excess label was removed via gel filtration (see above) before the addition of paramagnetic labeled peptides. The experiments were done in triplicate with measurements taken at 12 db, in 5 scan intervals. All spectra were normalized to the same number of scans. To quantify the amount of bound peptide spectra of all tested proteins in combination with the L2_108–126 or ScrL2 peptides were compared to the spectra of L2_108–126 or ScrL2 peptides alone in solution using a spectra analyzing software (EPR 130, University of California, Los Angeles). By subtracting the alone peptide spectra from that of the combined samples we derive the spectra of the bound spectra, and based on double integration, relate this spectra to a concentration of the peptide that bound to the target protein.

A further assay has as its system annexin A2. As to the kind of experiment: EPR binding of L2 peptide to annexin A2. How it is done:
as §1
as §2, with “The experiments were done in triplicate with measurements taken at 12 db, in 5 scan intervals. All spectra were normalized to the same number of scans.” left out, “By subtracting the alone peptide spectra from that of the combined samples we derive the spectra of the bound spectra, and based on double integration, relate this spectra to a concentration of the peptide that bound to the target protein.” left out

Another assay relates to HepG2 cell line. As to conditions: ref [28]; cited from earlier work. From the text:
Nonetheless, the link between HSV and H ...

Assay [2] concerns surface of HeLa, SiHa and CaSki cells. The settings on record: ref [28], cited from earlier work.

With “C-IVS-LVEETSFIDAGAPTSVPSI [L2_108–126, HPV16 L2 aa 108–126 peptide with N-terminal cysteine and IVS spacer]”, the “binding to BSA” value in assay [1] was “does not bind BSA in a significant manner”. The “interaction with S100A10 subunit” value with S100A10 subunit of A2t (EPR, discussion) was “very strong interaction”. The “relative % bound to S100A10” value in the assay on S100A10 subunit of A2t (EPR, 20 µM peptide, 100 µM S100A10, mean of three separate experiments) is listed as 92.5%. Also, in the assay with S100A10 subunit of A2t (EPR, S100A10 cysteine-blocked with R1′ (αCys-S100A10), paramagnetic-labeled peptide, mean of three separate experiments), the “relative % bound to cysteine-blocked S100A10” value stood at 73.1%. In the assay on S100A10 subunit of A2t (EPR, scrambled peptide 5∶1, mean of three separate experiments), the “relative % bound to S100A10 in presence of ScrL2” value was determined as 91.0%. Besides, the “relative binding constant (K), S100A10” value with S100A10 subunit of A2t (from EPR percent bound, association constant) was 150000 M⁻¹. Moreover, in the assay on annexin A2 (20 µM peptide, 100 µM ANXA2, mean of three separate experiments), the “relative % bound to annexin A2” value came out at 23.6%. Besides, the “interaction with annexin A2 subunit” value with annexin A2 (discussion) is given as “minimal interaction”. The “relative % bound to annexin A2 in presence of ScrL2” value in the assay on annexin A2 (scrambled peptide 5∶1, mean of three separate experiments) turned out to be 17.7%. In the assay with HepG2 cell line, the “binding to A2t-deficient HepG2 cells vs cervical cancer cell lines” value is reported as “bind significantly less”. In addition, in assay [2] (SiHa, CaSki, [29] (b5), [23], [28]), the “binding to cell lines” value is given as “can bind to the surface of several human cell lines”. The “binding to HeLa cells with substitutions at aa 108–111” value in assay [2] (aa 108–111 substituted (LVEE to GGDD)) is “decrease the binding”.
